US20210084904A1, “SUCCINATE DEHYDROGENASE INHIBITORS AND SULFUR-CONTAINING COMPOUNDS MIXTURES AND METHODS OF USE THEREOF” (University of Georgia Research Foundation, Inc., priority 2019, published 2021)

Tested on: Cercosporidium personatum
Assay: Greenhouse test: efficacy on peanut late leaf spot, foliar spray
Assay type: in vivo
Settings: leaves sprayed, infected peanut plants
Procedure: The following greenhouse test was conducted Sep. 14, 2019. Peanut plants (Arachis hypogaea) were used in the test as the crop plant. The peanut plants were infected Cercosporidium personatum.
Leaves were sprayed with inpyfluxam, chlorothalonil, benzovindiflupyr, prothioconazole, and/or sulfur at the rates disclosed in Table 1. All data was analyzed for significance.

## inpyrfluxam
Application rate 2.0 ounces/acre
  % Control: 32.5b %
Application rate 3.0 ounces/acre
  % Control: 31.3bc %
Application rate 4.0 ounces/acre
  % Control: 30.0bc %

## N#Cc1c(Cl)c(Cl)c(Cl)c(C#N)c1Cl [Chlorothalonil, chlorothalonil]
Application rate 24.0 ounces/acre
  % Control: 27.5c %

## OC(Cc1ccccc1Cl)(Cn1nc[nH]c1=S)C1(Cl)CC1 (centres unmarked) [Prothioconazole, prothioconazole]
Application rate 7.0 ounces/acre
  % Control: 10.0d %
